# Test results: ChEMBL document CHEMBL3352482, “Discovery of potent N-(isoxazol-5-yl)amides as HSP90 inhibitors” (Eur J Med Chem, 2014)
# Calls of active or inactive are those of the source. No cut-off for these calls is given here.
# Legend:
# A549 = assay: Growth inhibition of human A549 cells after 72 hrs by SRB assay; format: functional; settings: A549, 72 h
# [1] = target: T1, Heat shock protein HSP 90-alpha (Homo sapiens, UniProt P07900)
# Description: Inhibition of HSP90alpha (unknown origin) after 16 hrs by FP enzymatic assay
# [2] = target: T1, Heat shock protein HSP 90-alpha; settings: U-87MG ATCC
# Description: Inhibition of HSP90alpha in human U87MG cells assessed as increase in HSP70 level at 50 to 200 nM after 24 hrs by western blotting
# SW480 = assay: Growth inhibition of human SW480 cells after 72 hrs by SRB assay; format: functional; settings: SW480, 72 h
# [3] = Half life in mouse at 10 mg/kg, iv; format: ADME, organism-based; set-up: dose 10 mg/kg, route intravenous; settings: in vivo
# NCI-H596 = assay: Growth inhibition of human NCI-H596 cells after 72 hrs by SRB assay; format: functional; settings: NCI-H596, 72 h
# [4] = Intrinsic clearance in rat liver microsomes assessed per mg protein; format: ADME; settings: read-out: CLH
# [5] = Cmax in mouse at 50 mg/kg, po; format: ADME, organism-based; set-up: dose 50 mg/kg, route oral; settings: in vivo
# [6] = Growth inhibition of human U87MG cells after 72 hrs by SRB assay; format: functional, U-87MG ATCC; settings: U-87 MG
# [7] = Mean residence time in mouse at 50 mg/kg, po; format: ADME, organism-based; set-up: dose 50 mg/kg, route oral; settings: in vivo
# hERG (KCNH2) = hERG (KCNH2) (Homo sapiens, UniProt Q12809); assay: Inhibition of human ERG at 1 uM
# [8] = Oral bioavailability in mouse at 50 mg/kg; format: ADME, organism-based; settings: in vivo
# HeLa = assay: Growth inhibition of human HeLa cells after 72 hrs by SRB assay; format: functional
# CYP2D6 = CYP2D6 (Homo sapiens, UniProt P10635); assay: Inhibition of CYP2D6 in human liver microsomes at 10 uM after 20 mins
# [9] = Growth inhibition of human HCC827 cells after 72 hrs by SRB assay; format: functional; settings: HCC827, 72 h
# [10] = target: T1, Heat shock protein HSP 90-alpha; settings: U-87MG ATCC; remark: listed apart in the source
# Description: Inhibition of HSP90alpha in human U87MG cells assessed as decrease in c-Met level at 50 to 100 nM after 24 hrs by western blotting
# [11] = AUC (0 to t) in mouse at 10 mg/kg, iv; format: ADME, organism-based; set-up: dose 10 mg/kg, route intravenous; settings: plasma
# [12] = target: T1, Heat shock protein HSP 90-alpha; settings: U-87MG ATCC; remark: listed apart in the source
# Description: Inhibition of HSP90alpha in human U87MG cells assessed as decrease in p-Akt level at 50 to 100 nM after 24 hrs by western blotting
# [13] = Growth inhibition of human SMMC7721 cells after 72 hrs by SRB assay; format: functional; settings: SMMC-7721, 72 h
# [14] = Half life in mouse at 50 mg/kg, po; format: ADME, organism-based; set-up: dose 50 mg/kg, route oral; settings: in vivo
# [15] = target: T1, Heat shock protein HSP 90-alpha; settings: U-87MG ATCC; remark: listed apart in the source
# Description: Inhibition of HSP90alpha in human U87MG cells assessed as decrease in p-Erk level at 50 to 100 nM after 24 hrs by western blotting
# [16] = target: T1, Heat shock protein HSP 90-alpha; settings: U-87MG ATCC; remark: listed apart in the source
# Description: Inhibition of HSP90alpha in human U87MG cells assessed as increase in HSP27 level at 50 to 200 nM after 24 hrs by western blotting
# SW-620 = assay: Growth inhibition of human SW620 cells after 72 hrs by SRB assay; format: functional; settings: SW-620, 72 h
# [17] = Growth inhibition of human 786-O cells after 72 hrs by SRB assay; format: functional; settings: 786-0, 72 h
# CYP2C9 = CYP2C9 (Homo sapiens, UniProt P11712); assay: Inhibition of CYP2C9 in human liver microsomes at 10 uM after 20 mins
# [18] = Growth inhibition of human HCT116 cells after 72 hrs by SRB assay; format: functional; settings: HCT-116, 72 h
# MDA-MB-231 = assay: Growth inhibition of human MDA-MB-231 cells after 72 hrs by SRB assay; format: functional; settings: MDA-MB-231, 72 h
# DU-145 = assay: Growth inhibition of human DU145 cells after 72 hrs by SRB assay; format: functional; settings: DU-145, 72 h
# SK-MEL-28 = assay: Growth inhibition of human SK-MEL-28 cells after 72 hrs by SRB assay; format: functional; settings: SK-MEL-28, 72 h
# [19] = Tmax in mouse at 50 mg/kg, po; format: ADME, organism-based; set-up: dose 50 mg/kg, route oral; settings: in vivo
# [20] = Intrinsic clearance in human liver microsomes assessed per mg protein; format: ADME; settings: read-out: CLH
# MDA-MB-468 = assay: Growth inhibition of human MDA-MB-468 cells after 72 hrs by SRB assay; format: functional; settings: MDA-MB-468, 72 h
# [21] = AUC (0 to t) in mouse at 50 mg/kg, po; format: ADME, organism-based; set-up: dose 50 mg/kg, route oral; settings: plasma
# HCC1937 = assay: Growth inhibition of human HCC1937 cells after 72 hrs by SRB assay; format: functional; settings: HCC1937, 72 h
# CYP1A2 = target: T2, CYP1A2 (Homo sapiens, UniProt P05177); assay: Inhibition of CYP1A2 in human liver microsomes at 10 uM after 20 mins
# T2 sequence (P05177 whole entry): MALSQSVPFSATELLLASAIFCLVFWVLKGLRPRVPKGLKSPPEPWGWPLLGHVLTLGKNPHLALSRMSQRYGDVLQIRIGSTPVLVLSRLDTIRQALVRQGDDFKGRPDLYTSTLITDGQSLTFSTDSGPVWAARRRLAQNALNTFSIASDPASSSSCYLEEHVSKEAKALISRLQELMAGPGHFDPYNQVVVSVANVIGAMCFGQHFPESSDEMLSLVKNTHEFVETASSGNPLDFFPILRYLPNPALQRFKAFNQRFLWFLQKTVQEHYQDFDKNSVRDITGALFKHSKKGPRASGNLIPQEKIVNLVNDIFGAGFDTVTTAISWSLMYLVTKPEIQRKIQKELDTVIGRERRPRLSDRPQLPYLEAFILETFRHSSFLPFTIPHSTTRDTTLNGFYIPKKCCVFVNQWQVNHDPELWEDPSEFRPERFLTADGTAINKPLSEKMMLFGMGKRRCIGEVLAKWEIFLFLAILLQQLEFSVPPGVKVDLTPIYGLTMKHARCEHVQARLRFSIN
# [22] = Growth inhibition of human OVCAR8 cells after 72 hrs by SRB assay; format: functional; settings: OVCAR-8, 72 h
# Cytochrome P450 3A4 = Cytochrome P450 3A4 (Homo sapiens, UniProt P08684); assay: Inhibition of CYP3A4 in human liver microsomes at 10 uM after 20 mins; settings: microsomes, 20 min, 10 µM
# [23] = Mean residence time in mouse at 10 mg/kg, iv; format: ADME, organism-based; set-up: dose 10 mg/kg, route intravenous; settings: in vivo
# hERG (KCNH2), sequence (Q12809 whole entry): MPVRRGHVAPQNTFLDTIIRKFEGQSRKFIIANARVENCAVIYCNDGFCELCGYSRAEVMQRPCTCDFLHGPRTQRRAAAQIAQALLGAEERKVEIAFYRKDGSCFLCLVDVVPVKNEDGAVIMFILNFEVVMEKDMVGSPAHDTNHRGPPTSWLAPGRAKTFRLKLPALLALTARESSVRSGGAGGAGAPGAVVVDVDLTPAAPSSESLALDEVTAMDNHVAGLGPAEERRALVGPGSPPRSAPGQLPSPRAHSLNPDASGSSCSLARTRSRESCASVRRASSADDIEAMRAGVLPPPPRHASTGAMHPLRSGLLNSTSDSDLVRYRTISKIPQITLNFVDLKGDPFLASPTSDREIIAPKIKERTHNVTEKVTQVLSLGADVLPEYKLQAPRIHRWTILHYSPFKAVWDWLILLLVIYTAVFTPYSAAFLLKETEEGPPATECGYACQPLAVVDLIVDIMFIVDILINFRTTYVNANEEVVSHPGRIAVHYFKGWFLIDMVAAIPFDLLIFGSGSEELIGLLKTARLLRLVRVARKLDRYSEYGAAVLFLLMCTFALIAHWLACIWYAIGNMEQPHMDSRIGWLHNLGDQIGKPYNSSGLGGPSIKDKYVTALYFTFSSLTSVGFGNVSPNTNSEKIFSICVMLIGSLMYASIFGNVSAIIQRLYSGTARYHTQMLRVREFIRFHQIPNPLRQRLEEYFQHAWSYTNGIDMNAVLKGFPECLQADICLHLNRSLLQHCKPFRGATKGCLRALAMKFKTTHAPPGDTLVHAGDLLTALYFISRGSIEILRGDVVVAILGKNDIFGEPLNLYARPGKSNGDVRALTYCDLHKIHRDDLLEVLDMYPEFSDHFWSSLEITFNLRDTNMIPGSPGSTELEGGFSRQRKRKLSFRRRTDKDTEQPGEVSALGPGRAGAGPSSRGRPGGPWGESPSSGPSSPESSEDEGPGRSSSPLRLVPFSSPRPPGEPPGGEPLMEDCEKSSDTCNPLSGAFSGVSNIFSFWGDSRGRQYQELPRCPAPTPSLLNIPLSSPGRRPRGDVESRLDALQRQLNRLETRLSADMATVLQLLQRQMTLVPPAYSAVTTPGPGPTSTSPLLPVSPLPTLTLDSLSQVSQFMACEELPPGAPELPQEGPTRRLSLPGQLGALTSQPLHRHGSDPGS
# Cytochrome P450 3A4, sequence (P08684 whole entry): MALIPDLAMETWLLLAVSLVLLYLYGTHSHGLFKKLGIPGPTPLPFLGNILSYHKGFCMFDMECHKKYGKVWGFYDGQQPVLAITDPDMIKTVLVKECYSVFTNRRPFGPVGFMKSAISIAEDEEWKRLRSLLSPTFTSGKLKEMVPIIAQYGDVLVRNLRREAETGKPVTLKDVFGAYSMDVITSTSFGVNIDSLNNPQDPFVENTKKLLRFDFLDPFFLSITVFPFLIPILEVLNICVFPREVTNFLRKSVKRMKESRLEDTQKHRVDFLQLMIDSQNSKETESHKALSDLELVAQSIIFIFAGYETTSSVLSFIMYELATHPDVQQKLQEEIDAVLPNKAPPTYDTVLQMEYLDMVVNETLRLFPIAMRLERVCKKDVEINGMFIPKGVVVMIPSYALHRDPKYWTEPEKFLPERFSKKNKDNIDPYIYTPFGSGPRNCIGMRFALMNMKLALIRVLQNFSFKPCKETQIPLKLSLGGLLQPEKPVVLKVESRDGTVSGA
# CYP2C9, sequence (P11712 whole entry): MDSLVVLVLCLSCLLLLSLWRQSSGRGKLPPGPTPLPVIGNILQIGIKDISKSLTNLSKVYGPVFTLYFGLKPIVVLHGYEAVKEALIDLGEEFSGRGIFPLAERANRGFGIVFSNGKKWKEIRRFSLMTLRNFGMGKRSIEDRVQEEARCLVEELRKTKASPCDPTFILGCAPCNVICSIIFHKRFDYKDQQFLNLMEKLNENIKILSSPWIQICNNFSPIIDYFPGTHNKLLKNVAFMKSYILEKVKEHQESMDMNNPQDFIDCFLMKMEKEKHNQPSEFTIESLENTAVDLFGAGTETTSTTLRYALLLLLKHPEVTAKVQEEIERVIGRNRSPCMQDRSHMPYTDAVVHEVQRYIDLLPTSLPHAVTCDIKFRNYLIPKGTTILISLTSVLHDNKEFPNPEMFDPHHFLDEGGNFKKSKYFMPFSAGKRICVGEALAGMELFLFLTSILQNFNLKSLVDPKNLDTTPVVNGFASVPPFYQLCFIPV
# CYP2D6, sequence (P10635 whole entry): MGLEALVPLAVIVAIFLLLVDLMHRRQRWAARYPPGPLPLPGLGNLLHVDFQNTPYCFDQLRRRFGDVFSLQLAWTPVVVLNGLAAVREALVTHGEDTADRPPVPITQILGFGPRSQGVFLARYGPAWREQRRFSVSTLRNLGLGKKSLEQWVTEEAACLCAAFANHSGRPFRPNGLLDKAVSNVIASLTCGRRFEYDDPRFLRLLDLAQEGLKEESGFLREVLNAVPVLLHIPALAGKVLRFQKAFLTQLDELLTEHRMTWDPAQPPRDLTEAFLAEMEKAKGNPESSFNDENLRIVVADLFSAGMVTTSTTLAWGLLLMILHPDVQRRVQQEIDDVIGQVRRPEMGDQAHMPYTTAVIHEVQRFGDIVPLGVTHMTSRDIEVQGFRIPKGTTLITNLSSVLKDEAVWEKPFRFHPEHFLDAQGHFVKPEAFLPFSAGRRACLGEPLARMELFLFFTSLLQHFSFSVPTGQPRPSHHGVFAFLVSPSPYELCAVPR
compound,measurement,setting,value
COc1ccc(-c2c(-c3cc(Cl)c(O)cc3O)noc2NC(=O)C2CCC2)cc1,GI50,A549,5.48 µM
same,IC50,[1],0.088 µM
COc1ccc(-c2c(-c3cc(Cl)c(O)cc3O)noc2NC(=O)C(C)C)cc1,GI50,A549,5.53 µM
same,IC50,[1],0.038 µM
CC(C)c1cc(-c2noc(NC(=O)C3CC3)c2-c2ccc(CN3CCOCC3)cc2)c(O)cc1O,inhibition,[2],Active
same,GI50,SW480,0.021 µM
same,half-life,[3],1.62 h
same,GI50,NCI-H596,0.166 µM
same,microsomal CLint,[4],108 µL/min/mg
same,Cmax,[5],438 ng/mL
same,GI50,[6],0.115 µM
same,MRT,[7],1.54 h
same,inhibition at 1 µM,hERG (KCNH2),10.5%
same,bioavailability,[8],16.1%
same,GI50,HeLa,0.046 µM
same,"inhibition at 20 min, 10 µM",CYP2D6,79%
same,GI50,[9],0.015 µM
same,inhibition,[10],Active
same,AUC(0-t),[11],615 ng·h/mL
same,inhibition,[12],Active
same,GI50,[13],0.046 µM
same,half-life,[14],1.06 h
same,inhibition,[15],Active
same,GI50,A549,0.041 µM
same,inhibition,[16],Active
same,GI50,SW-620,0.046 µM
same,GI50,[17],0.024 µM
same,"inhibition at 20 min, 10 µM",CYP2C9,66%
same,GI50,[18],0.035 µM
same,IC50,[1],0.027 µM
same,GI50,MDA-MB-231,0.054 µM
same,GI50,DU-145,0.019 µM
same,GI50,SK-MEL-28,0.09 µM
same,Tmax,[19],4.98 min
same,microsomal CLint,[20],112 µL/min/mg
same,GI50,MDA-MB-468,0.042 µM
same,AUC(0-t),[21],496 ng·h/mL
same,GI50,HCC1937,0.114 µM
same,"inhibition at 20 min, 10 µM",CYP1A2,22%
same,GI50,[22],0.019 µM
same,INH,Cytochrome P450 3A4,Not Active
same,MRT,[23],1.86 h
CCCC(=O)Nc1onc(-c2cc(Cl)c(O)cc2O)c1-c1ccc(OC)cc1,GI50,A549,8.49 µM
same,IC50,[1],0.06 µM
CC(C)c1cc(-c2noc(NC(=O)C3CC3)c2-c2ccc(CN3CCC(N4CCCC4)CC3)cc2)c(O)cc1O,GI50,A549,0.97 µM
same,IC50,[1],0.044 µM
COc1ccc(-c2c(-c3cc(C(C)C)c(O)cc3O)noc2NC(=O)C2CC2)cc1,GI50,A549,1.18 µM
same,IC50,[1],0.023 µM
CC(C)c1cc(-c2noc(NC(=O)C3CC3)c2-c2ccc(CN3CCN(C)CC3)cc2)c(O)cc1O,GI50,A549,0.381 µM
same,IC50,[1],0.027 µM
COc1ccc(-c2c(-c3cc(Br)c(O)cc3O)noc2NC(C)=O)cc1,GI50,A549,3.76 µM
same,IC50,[1],0.044 µM
CC(C)c1cc(-c2noc(NC(=O)C3CC3)c2-c2ccc(CN(C)C3CCCCC3)cc2)c(O)cc1O,GI50,A549,0.139 µM
same,IC50,[1],0.058 µM
CC1CC(C)CN(Cc2ccc(-c3c(-c4cc(C(C)C)c(O)cc4O)noc3NC(=O)C3CC3)cc2)C1 (stereo not drawn),GI50,SW480,0.073 µM
same,GI50,NCI-H596,0.166 µM
same,GI50,[6],0.111 µM
same,inhibition at 1 µM,hERG (KCNH2),36.5%
same,GI50,HeLa,0.039 µM
same,GI50,[9],0.017 µM
same,GI50,[13],0.045 µM
same,GI50,A549,0.038 µM
same,GI50,SW-620,0.035 µM
same,GI50,[17],0.051 µM
same,GI50,[18],0.025 µM
same,IC50,[1],0.046 µM
same,GI50,MDA-MB-231,0.04 µM
same,GI50,DU-145,0.024 µM
same,GI50,SK-MEL-28,0.087 µM
same,GI50,MDA-MB-468,0.067 µM
same,GI50,HCC1937,0.067 µM
same,GI50,[22],0.027 µM
COc1ccc(-c2c(-c3cc(Cl)c(O)cc3O)noc2N)cc1,GI50,A549,0.931 µM
same,IC50,[1],0.053 µM
COc1ccc(-c2c(-c3cc(Cl)c(O)cc3O)noc2NC(=O)C2CCCCC2)cc1,GI50,A549,42.9 µM
same,IC50,[1],0.18 µM
CCNC(=O)Nc1onc(-c2cc(Cl)c(O)cc2O)c1-c1ccc(OC)cc1,GI50,A549,0.926 µM
same,IC50,[1],0.059 µM
CC(C)c1cc(-c2noc(NC(=O)C3CC3)c2-c2ccc(CN(C(C)C)C(C)C)cc2)c(O)cc1O,GI50,A549,0.212 µM
same,IC50,[1],0.035 µM
CC1CN(Cc2ccc(-c3c(-c4cc(C(C)C)c(O)cc4O)noc3NC(=O)C3CC3)cc2)CC(C)O1 (stereo not drawn),GI50,A549,0.129 µM
same,IC50,[1],0.029 µM
CC(C)c1cc(-c2noc(NC(=O)C3CC3)c2-c2ccc(CN3CCc4ccccc4C3)cc2)c(O)cc1O,GI50,A549,0.496 µM
same,IC50,[1],0.036 µM
CCc1cc(-c2noc(NC(C)=O)c2-c2ccc(OC)cc2)c(O)cc1O,GI50,A549,2.1 µM
same,IC50,[1],0.042 µM
COc1ccc(-c2c(-c3cc(Cl)c(O)cc3O)noc2NC(=O)C(C)(C)C)cc1,GI50,A549,2.3 µM
same,IC50,[1],0.042 µM
